Results from PubChem BioAssay (NCI).
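Step 1: Grow cells in 96-well plates. Step 2: Expose to compound for 48 hours at 5 concentrations. Step 3: Interpolate endpoints linearly; if unreached, use highest concentration. GI50 marks 50% less growth. TGI marks complete inhibition of growth.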

Columns and labels:
Assay in all cases: NCI anticancer screen, dose series, 48 h
SF-268 CNS = tested on: SF-268 CNS
NCI-H460 lung = tested on: NCI-H460 lung
KM12 colon = tested on: KM12 colon
OVCAR-4 ovarian = tested on: OVCAR-4 ovarian
MDA-MB-231 breast = tested on: MDA-MB-231 breast
SK-MEL-5 melanoma = tested on: SK-MEL-5 melanoma
NCI-H226 lung = tested on: NCI-H226 lung
UO-31 renal = tested on: UO-31 renal
HS 578T breast = tested on: HS 578T breast
MCF7 breast = tested on: MCF7 breast
HCT-15 colon = tested on: HCT-15 colon
M14 melanoma = tested on: M14 melanoma
HL-60(TB) leukemia = tested on: HL-60(TB) leukemia
K-562 leukemia = tested on: K-562 leukemia
EKVX NSCLC = tested on: EKVX NSCLC
SR leukemia = tested on: SR leukemia
HOP-92 NSCLC = tested on: HOP-92 NSCLC
HCT-116 colon = tested on: HCT-116 colon
SNB-19 CNS = tested on: SNB-19 CNS
RPMI-8226 leukemia = tested on: RPMI-8226 leukemia
OVCAR-5 ovarian = tested on: OVCAR-5 ovarian
CCRF-CEM leukemia = tested on: CCRF-CEM leukemia
SN12C renal = tested on: SN12C renal
U251 CNS = tested on: U251 CNS
MDA-MB-435 = tested on: MDA-MB-435
NCI-H522 lung = tested on: NCI-H522 lung
SW-620 colon = tested on: SW-620 colon
ACHN renal = tested on: ACHN renal
RXF 393 renal = tested on: RXF 393 renal
NCI-H23 lung = tested on: NCI-H23 lung
TK-10 renal = tested on: TK-10 renal
A498 renal = tested on: A498 renal
HT29 colon = tested on: HT29 colon
NCI/ADR-RES ovarian = tested on: NCI/ADR-RES ovarian
OVCAR-8 ovarian = tested on: OVCAR-8 ovarian
SF-295 CNS = tested on: SF-295 CNS
T-47D breast = tested on: T-47D breast
HOP-62 NSCLC = tested on: HOP-62 NSCLC
HCC-2998 colon = tested on: HCC-2998 colon
SF-539 CNS = tested on: SF-539 CNS
SK-MEL-28 melanoma = tested on: SK-MEL-28 melanoma
UACC-257 melanoma = tested on: UACC-257 melanoma
DU-145 prostate = tested on: DU-145 prostate
BT-549 breast = tested on: BT-549 breast
A549 NSCLC = tested on: A549 NSCLC
SNB-75 CNS = tested on: SNB-75 CNS
PC-3 prostate = tested on: PC-3 prostate
786-0 renal = tested on: 786-0 renal
SK-OV-3 ovarian = tested on: SK-OV-3 ovarian
MOLT-4 leukemia = tested on: MOLT-4 leukemia
COLO 205 colon = tested on: COLO 205 colon
CAKI-1 renal = tested on: CAKI-1 renal
IGROV1 ovarian = tested on: IGROV1 ovarian
UACC-62 melanoma = tested on: UACC-62 melanoma
SK-MEL-2 melanoma = tested on: SK-MEL-2 melanoma
OVCAR-3 ovarian = tested on: OVCAR-3 ovarian
LOX IMVI melanoma = tested on: LOX IMVI melanoma
MALME-3M melanoma = tested on: MALME-3M melanoma

In the case of `Nc1nc(CCl)nc(N2CCOCC2)n1`, the TGI (SF-268 CNS) is reported as > 100 µM, the TGI (NCI-H460 lung) is reported as 41.1 µM and the TGI (KM12 colon) is reported as > 100 µM. For the same molecule, the TGI (OVCAR-4 ovarian) was 33.4 µM, the TGI (MDA-MB-231 breast) was 78.7 µM and the TGI (SK-MEL-5 melanoma) was 46.2 µM. For the same molecule, the TGI (NCI-H226 lung) was > 100 µM, the TGI (UO-31 renal) was 31.6 µM and the TGI (HS 578T breast) was > 100 µM. The TGI (MCF7 breast) was > 100 µM, the TGI (HCT-15 colon) was 34.9 µM and the TGI (M14 melanoma) was > 100 µM. The TGI (HL-60(TB) leukemia) was 35.6 µM, the TGI (K-562 leukemia) was 54.4 µM and the TGI (EKVX NSCLC) was 38 µM. For the same molecule, the TGI (SR leukemia) was 61.8 µM, the TGI (HOP-92 NSCLC) was 32.2 µM and the TGI (HCT-116 colon) was 66.1 µM. For the same molecule, the TGI (SNB-19 CNS) was > 100 µM, the TGI (RPMI-8226 leukemia) was > 100 µM and the TGI (OVCAR-5 ovarian) was 47.3 µM. The TGI (CCRF-CEM leukemia) was 45.7 µM, the TGI (SN12C renal) was > 100 µM and the TGI (U251 CNS) was 53.9 µM. The TGI (MDA-MB-435) was > 100 µM, the TGI (NCI-H522 lung) was 11.1 µM and the TGI (SW-620 colon) was 60.4 µM. The TGI (ACHN renal) was 32.5 µM, the TGI (RXF 393 renal) was > 100 µM and the TGI (NCI-H23 lung) was 35.1 µM. For the same molecule, the TGI (TK-10 renal) was > 100 µM, the TGI (A498 renal) was > 100 µM and the TGI (HT29 colon) was > 100 µM. The TGI (NCI/ADR-RES ovarian) was 89.2 µM, the TGI (OVCAR-8 ovarian) was > 100 µM and the TGI (SF-295 CNS) was > 100 µM. For the same molecule, the TGI (T-47D breast) was > 100 µM, the TGI (HOP-62 NSCLC) was 44.5 µM and the TGI (HCC-2998 colon) was 36.3 µM. For the same molecule, the TGI (SF-539 CNS) was 51.9 µM, the TGI (SK-MEL-28 melanoma) was 45.9 µM and the TGI (UACC-257 melanoma) was > 100 µM. For the same molecule, the TGI (DU-145 prostate) was > 100 µM, the TGI (BT-549 breast) was > 100 µM and the TGI (A549 NSCLC) was > 100 µM. The TGI (SNB-75 CNS) was 98.6 µM, the TGI (PC-3 prostate) was > 100 µM and the TGI (786-0 renal) was 29.2 µM. For the same molecule, the TGI (SK-OV-3 ovarian) was > 100 µM, the TGI (MOLT-4 leukemia) was > 100 µM and the TGI (COLO 205 colon) was 32.5 µM. It also gave a TGI (CAKI-1 renal) of 30.5 µM, a TGI (IGROV1 ovarian) of 32.6 µM and a TGI (UACC-62 melanoma) of 31.4 µM. For the same molecule, the TGI (SK-MEL-2 melanoma) was > 100 µM.

With `C/C(=N\NC(=O)c1ccccc1N)c1ccccc1O` the GI50 (SF-268 CNS) was 3.05 µM, the TGI (SF-268 CNS) was > 100 µM and the GI50 (NCI-H460 lung) was 1.65 µM. For the same molecule, the TGI (NCI-H460 lung) was > 100 µM, the GI50 (KM12 colon) was 3.92 µM and the TGI (KM12 colon) was > 100 µM. For the same molecule, the GI50 (OVCAR-4 ovarian) was 2.14 µM, the TGI (OVCAR-4 ovarian) was > 100 µM and the GI50 (MDA-MB-231 breast) was 5.24 µM. The TGI (MDA-MB-231 breast) was > 100 µM, the GI50 (SK-MEL-5 melanoma) was 3.83 µM and the TGI (SK-MEL-5 melanoma) was 57.7 µM. For the same molecule, the GI50 (NCI-H226 lung) was 5.14 µM, the TGI (NCI-H226 lung) was > 100 µM and the GI50 (UO-31 renal) was 1.94 µM. The TGI (UO-31 renal) was > 100 µM, the GI50 (HS 578T breast) was 16.7 µM and the TGI (HS 578T breast) was > 100 µM. The GI50 (MCF7 breast) was 2.71 µM, the TGI (MCF7 breast) was > 100 µM and the GI50 (HCT-15 colon) was 1.44 µM. For the same molecule, the TGI (HCT-15 colon) was > 100 µM, the GI50 (M14 melanoma) was 4.29 µM and the TGI (M14 melanoma) was 57.5 µM. For the same molecule, the GI50 (HL-60(TB) leukemia) was 3.01 µM, the TGI (HL-60(TB) leukemia) was > 100 µM and the GI50 (K-562 leukemia) was 3.72 µM. For the same molecule, the TGI (K-562 leukemia) was > 100 µM, the GI50 (SR leukemia) was 2.83 µM and the TGI (SR leukemia) was 66.6 µM. The GI50 (HOP-92 NSCLC) was 24.7 µM, the TGI (HOP-92 NSCLC) was > 100 µM and the GI50 (HCT-116 colon) was 2.4 µM. For the same molecule, the TGI (HCT-116 colon) was > 100 µM, the GI50 (SNB-19 CNS) was 9.72 µM and the TGI (SNB-19 CNS) was > 100 µM. The GI50 (RPMI-8226 leukemia) was 9.51 µM, the TGI (RPMI-8226 leukemia) was > 100 µM and the GI50 (OVCAR-5 ovarian) was 4.45 µM. For the same molecule, the TGI (OVCAR-5 ovarian) was > 100 µM, the GI50 (SN12C renal) was 5.25 µM and the TGI (SN12C renal) was > 100 µM. The GI50 (U251 CNS) was 2.21 µM, the TGI (U251 CNS) was > 100 µM and the GI50 (MDA-MB-435) was 8.53 µM. For the same molecule, the TGI (MDA-MB-435) was > 100 µM, the GI50 (SW-620 colon) was 5.05 µM and the TGI (SW-620 colon) was > 100 µM. For the same molecule, the GI50 (ACHN renal) was 2.63 µM, the TGI (ACHN renal) was > 100 µM and the GI50 (RXF 393 renal) was 11.2 µM. The TGI (RXF 393 renal) was > 100 µM, the GI50 (NCI-H23 lung) was 7.33 µM and the TGI (NCI-H23 lung) was > 100 µM. For the same molecule, the GI50 (TK-10 renal) was 1.5 µM, the TGI (TK-10 renal) was > 100 µM and the GI50 (A498 renal) was 10.4 µM. The TGI (A498 renal) was > 100 µM, the GI50 (HT29 colon) was 8.58 µM and the TGI (HT29 colon) was > 100 µM. The GI50 (NCI/ADR-RES ovarian) was 4.52 µM, the TGI (NCI/ADR-RES ovarian) was > 100 µM and the GI50 (OVCAR-8 ovarian) was 3.16 µM. The TGI (OVCAR-8 ovarian) was > 100 µM, the GI50 (SF-295 CNS) was 3.23 µM and the TGI (SF-295 CNS) was > 100 µM. The GI50 (OVCAR-3 ovarian) was 2.79 µM, the TGI (OVCAR-3 ovarian) was > 100 µM and the GI50 (T-47D breast) was 2.6 µM. The TGI (T-47D breast) was > 100 µM, the GI50 (HOP-62 NSCLC) was 4.4 µM and the TGI (HOP-62 NSCLC) was > 100 µM. For the same molecule, the GI50 (HCC-2998 colon) was 5.8 µM, the TGI (HCC-2998 colon) was > 100 µM and the GI50 (LOX IMVI melanoma) was 4.09 µM. For the same molecule, the TGI (LOX IMVI melanoma) was > 100 µM, the GI50 (MALME-3M melanoma) was 19.4 µM and the TGI (MALME-3M melanoma) was > 100 µM. The GI50 (SF-539 CNS) was 3.26 µM, the TGI (SF-539 CNS) was > 100 µM and the GI50 (SK-MEL-28 melanoma) was 8.44 µM. For the same molecule, the TGI (SK-MEL-28 melanoma) was > 100 µM, the GI50 (DU-145 prostate) was 4.67 µM and the TGI (DU-145 prostate) was > 100 µM. The GI50 (BT-549 breast) was 14.9 µM, the TGI (BT-549 breast) was > 100 µM and the GI50 (SNB-75 CNS) was > 100 µM. For the same molecule, the TGI (SNB-75 CNS) was > 100 µM, the GI50 (PC-3 prostate) was 6.95 µM and the TGI (PC-3 prostate) was > 100 µM. For the same molecule, the GI50 (786-0 renal) was 5.37 µM, the TGI (786-0 renal) was 80.4 µM and the GI50 (SK-OV-3 ovarian) was 13.4 µM. For the same molecule, the TGI (SK-OV-3 ovarian) was > 100 µM, the GI50 (MOLT-4 leukemia) was 3.17 µM and the TGI (MOLT-4 leukemia) was > 100 µM. The GI50 (COLO 205 colon) was 3.23 µM, the TGI (COLO 205 colon) was > 100 µM and the GI50 (CAKI-1 renal) was 2.34 µM. The TGI (CAKI-1 renal) was > 100 µM, the GI50 (IGROV1 ovarian) was 3.56 µM and the TGI (IGROV1 ovarian) was > 100 µM. The GI50 (UACC-62 melanoma) was 3.39 µM, the TGI (UACC-62 melanoma) was 47.5 µM and the GI50 (SK-MEL-2 melanoma) was 12.5 µM. The TGI (SK-MEL-2 melanoma) was > 100 µM.
